# Molecular target: T1, EPAC1-CNBD (Homo sapiens, UniProt O95398)
# T1 sequence (O95398 169-318 isoform O95398-3): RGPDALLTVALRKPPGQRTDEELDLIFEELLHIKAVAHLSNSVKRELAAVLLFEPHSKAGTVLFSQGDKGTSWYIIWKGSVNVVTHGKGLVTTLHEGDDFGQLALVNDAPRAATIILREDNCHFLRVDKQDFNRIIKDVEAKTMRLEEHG
# Assay: 8-NBD-cAMP competition binding assay, EPAC1-CNBD
# Conditions: for RFI (%) (relative fluorescence intensity), Table 2 / RFI (%) (relative fluorescence intensity), Table 3 / RFI (%) (relative fluorescence intensity), Table 4: compound 10 µM, EPAC1-CNBD 0.8 µM, 8-NBD-cAMP 62.5 nM, mean ± SEM, lower RFI = stronger binding; for EPAC1 binding potency / affinity in words: SAR comment on RFI, mostly relative to 3 or 9a; for fold binding potency increase versus compound 3: from RFI at 10 µM
Structure (SMILES),"RFI (%) (relative fluorescence intensity), Table 4",also measured
"Cc1ccc(S(=O)(=O)NC(=O)COc2ccc3[nH]ccc3c2)c(C)c1 [Compound 9r, 2-((1H-Indol-5-yl)oxy)-N-((2,4-dimethylphenyl)sulfonyl)acetamide]",–,"RFI (%) (relative fluorescence intensity), Table 2: 91 ± 2%"
"Cc1ccc(S(=O)(=O)NC(=O)COc2ccc3[nH]ncc3c2)c(C)c1 [Compound 9s, 2-((1H-Indazol-5-yl)oxy)-N-((2,4-dimethylphenyl)sulfonyl)acetamide]",–,"RFI (%) (relative fluorescence intensity), Table 2: 94 ± 4%"
"Cc1cc(C)c(S(=O)(=O)NC(=O)CSc2ccc3ccccc3c2)c(C)c1 [Compound 12a, N-(Mesitylsulfonyl)-2-(naphthalen-2-ylthio)acetamide]",–,"EPAC1 binding potency / affinity in words: completely inhibit EPAC binding potency; RFI (%) (relative fluorescence intensity), Table 3: 92 ± 2%"
"Cc1cc(C)c(S(=O)(=O)NC(=O)CNc2ccc3ccccc3c2)c(C)c1 [Compound 12b, N-(Mesitylsulfonyl)-2-(naphthalen-2-ylamino)acetamide]",–,"RFI (%) (relative fluorescence intensity), Table 3: 97 ± 5%"
"Cc1cc(C)c(S(=O)(=O)NCCOc2ccc3ccccc3c2)c(C)c1 [Compound 12c, 2,4,6-Trimethyl-N-(2-(naphthalen-2-yloxy)ethyl)benzenesulfonamide]",–,"EPAC1 binding potency / affinity in words: partial or complete loss of binding activity; RFI (%) (relative fluorescence intensity), Table 3: 105 ± 4%"
"Cc1cc(C)c(S(=O)(=O)N2CCC(Oc3ccc4ccccc4c3)CC2)c(C)c1 [Compound 12d, 1-(Mesitylsulfonyl)-4-(naphthalen-2-yloxy)piperidine]",–,"EPAC1 binding potency / affinity in words: partial or complete loss of binding activity; RFI (%) (relative fluorescence intensity), Table 3: 105 ± 3%"
"Cc1cc(C)c(S(=O)(=O)NC(=O)C(F)Oc2ccc3ccccc3c2)c(C)c1 (centres unmarked) [Compound 12e, 2-Fluoro-N-(mesitylsulfonyl)-2-(naphthalen-2-yloxy)acetamide]",–,"RFI (%) (relative fluorescence intensity), Table 3: 82 ± 4%"
"Cc1ccc(S(=O)(=O)NC(=O)C(C)(C)Oc2ccc3ccccc3c2)c(C)c1 [Compound 12f, N ((2,4-Dimethylphenyl)sulfonyl)-2-methyl-2-(naphthalen-2-yloxy)propenamide]",–,"EPAC1 binding potency / affinity in words: partial or complete loss of binding activity; RFI (%) (relative fluorescence intensity), Table 3: 76 ± 3%"
"Cc1ccc(S(=O)(=O)NCCOc2ccc3ccccc3c2)c(C)c1 [Compound 12g, 2,4-Dimethyl-N-(2-(naphthalen-2-yloxy)ethyl)benzenesulfonamide]",–,"EPAC1 binding potency / affinity in words: partial or complete loss of binding activity; RFI (%) (relative fluorescence intensity), Table 3: 81 ± 3%"
"Cc1cc(C)cc(S(=O)(=O)NC(=O)COc2ccc3ccccc3c2)c1 [Compound 25a, N-((3,5-Dimethylphenyl)sulfonyl)-2-(naphthalen-2-yloxy)acetamide]",38 ± 2,fold binding potency increase versus compound 3: about 1.6 fold
"O=C(COc1ccc2ccccc2c1)NS(=O)(=O)C1CCCCC1 [Compound 25aa, N-(Cyclohexylsulfonyl)-2-(naphthalen-2-yloxy)acetamide]",81±3,EPAC1 binding potency / affinity in words: complete loss of affinity
"O=C(COc1ccc2ccccc2c1)NS(=O)(=O)c1cccc(-c2ccoc2)c1 [Compound 25ab, N-3-(Furan-3-yl)phenylsulfonyl-2-(naphthalene-2-yloxy)acetamide]",53 ± 2,–
"O=C(COc1ccc2ccccc2c1)NS(=O)(=O)c1cccc(-c2ccccc2)c1 [Compound 25ac, N-([1,1′-Biphenyl]-3-ylsulfonyl)-2-(naphthalene-2yloxy)acetamide]",35± 1,–
"COC(=O)c1cccc(S(=O)(=O)NC(=O)COc2ccc3ccccc3c2)c1 [Compound 25ad, Methyl 3-(N-(2-(naphthalene-2-yloxy)acetyl)sulfamoyl)benzoate]",71 ± 1,–
"O=C(COc1ccc2ccccc2c1)NS(=O)(=O)c1ccccc1F [Compound 25b, N-((2-Fluorophenyl)sulfonyl)-2-(naphthalen-2-yloxy)acetamide]",69 ± 2,EPAC1 binding potency / affinity in words: decreased the binding potency
"O=C(COc1ccc2ccccc2c1)NS(=O)(=O)c1cccc(F)c1 [Compound 25c, N-((3-Fluorophenyl)sulfonyl)-2-(naphthalen-2-yloxy)acetamide]",82 ± 4,EPAC1 binding potency / affinity in words: decreased the binding potency
"O=C(COc1ccc2ccccc2c1)NS(=O)(=O)c1ccc(F)cc1 [Compound 25d, N-((4-Fluorophenyl)sulfonyl)-2-(naphthalen-2-yloxy)acetamide]",81 ± 4,EPAC1 binding potency / affinity in words: decreased the binding potency

Structure (SMILES),"RFI (%) (relative fluorescence intensity), Table 4",also measured
"COc1ccc(OC)c(S(=O)(=O)NC(=O)COc2ccc3ccccc3c2)c1 [Compound 25h, N-((2,5-Dimethoxyphenyl)sulfonyl)-2-(naphthalen-2-yloxy)acetamide]",72 ± 4,–
"COc1ccc(S(=O)(=O)NC(=O)COc2ccc3ccccc3c2)cc1OC [Compound 25i, N-((3,4-Dimethoxyphenyl)sulfonyl)-2-(naphthalen-2-yloxy)acetamide]",50 ± 3,–
"Cc1cc(Br)cc(S(=O)(=O)NC(=O)COc2ccc3ccccc3c2)c1 [Compound 25j, N-((3-Bromo-5-methylphenyl)sulfonyl)-2-(naphthalen-2-yloxy)acetamide]",58 ± 2,–
"COc1ccc2ccc(OCC(=O)NS(=O)(=O)c3cc(C)cc(Br)c3)cc2c1 [Compound 25k, N-((3-Bromo-5-methylphenyl)sulfonyl)-2-((7-methoxynaphthalen-2-yl)oxy)acetamide]",29 ± 8,–
"COc1ccc2ccc(OCC(=O)NS(=O)(=O)c3cc(Cl)cc(Cl)c3)cc2c1 [Compound 25l, N-((3,5-Dichlorophenyl)sulfonyl)-2-((7-methoxynaphthalen-2-yl)oxy)acetamide]",54 ± 6,–
"COc1ccc2ccc(OCC(=O)NS(=O)(=O)c3ccc([N+](=O)[O-])cc3OC)cc2c1 [Compound 25m, N-((2-Methoxy-4-nitrophenyl)sulfonyl)-2-((7-methoxynaphthalen-2-yl)oxy)acetamide]",24 ± 2,–
"COc1ccc(OC)c(S(=O)(=O)NC(=O)COc2ccc3ccc(OC)cc3c2)c1 [Compound 25o, N-((2,5-Dimethoxyphenyl)sulfonyl)-2-((7-methoxynaphthalen-2-yl)oxy)acetamide]",49 ± 4,–
"COc1ccc2ccc(OCC(=O)NS(=O)(=O)c3ccc(OC)c(OC)c3)cc2c1 [Compound 25p, N-((3,4-Dimethoxyphenyl)sulfonyl)-2-((7-methoxynaphthalen-2-yl)oxy)acetamide]",23 ± 4,–
"Cc1cc(-c2cncc(F)c2)cc(S(=O)(=O)NC(=O)COc2ccc3ccccc3c2)c1 [Compound 25r, N-((3-(5-Fluoropyridin-3-yl)-5-methylphenyl)sulfonyl)-2-(naphthalen-2-yloxy)acetamide]",36 ± 3,–
"Cc1cc(-c2ccco2)cc(S(=O)(=O)NC(=O)COc2ccc3ccccc3c2)c1 [Compound 25s, N-((3-(Furan-2-yl)-5-methylphenyl)sulfonyl)-2-(naphthalen-2-yloxy)acetamide]",40 ± 1,–
"Cc1cc(-c2ccnn2C)cc(S(=O)(=O)NC(=O)COc2ccc3ccccc3c2)c1 [Compound 25t, N-((3-Methyl-5-(1-methyl-1H-pyrazol-5-yl)phenyl)sulfonyl)-2-(naphthalen-2-yloxy)acetamide]",34 ± 5,–
"Cc1cc(Nc2ccc(C(F)(F)F)cn2)cc(S(=O)(=O)NC(=O)COc2ccc3ccccc3c2)c1 [Compound 25v, N-((3-Methyl-5-((5-(trifluoromethyl)pyridin-2-yl)amino)phenyl)sulfonyl)-2-(naphthalen-2-yloxy)acetamide]",20 ± 3,fold binding potency increase versus compound 3: about 3 fold
"Cc1ccc(S(=O)(=O)NC(=O)COc2ccc3ccccc3c2)cc1 [Compound 25w, 2-(Naphthalen-2-yloxy)-N-tosylacetamide]",44 ± 2,–
"O=C(COc1ccc2ccccc2c1)NS(=O)(=O)c1cccc([N+](=O)[O-])c1 [Compound 25x, 2-(Naphthalen-2-yloxy)-N-((3-nitrophenyl)sulfonyl)acetamide]",67 ± 3,–
"O=C(COc1ccc2ccccc2c1)NS(=O)(=O)c1ccccc1 [Compound 25y, 2-(Naphthalen-2-yloxy)-N-(phenylsulfonyl)acetamide]",49 ± 2,–
"COc1cccc(S(=O)(=O)NC(=O)COc2ccc3ccccc3c2)c1 [Compound 25z, N-((3-methoxyphenyl)sulfonyl)-2-(naphthalen-2-yloxy)acetamide]",33 ± 3,–

# From US20230150929A1, “SELECTIVE NON-CYCLIC NUCLEOTIDE ACTIVATORS FOR THE CAMP SENSOR EPAC1” (The Board of Regents of The University of Texas System, priority 2020, published 2023)
